Test results as given in ChEMBL document CHEMBL1157523, “Synthesis and in vivo evaluation of 11-substituted estradiol derivatives as anti-implantation agents” (2008).
Calls of active or inactive are those of the source. No cut-off for these calls is given here.

What was measured:
Assay type in all cases: functional
Rattus norvegicus [1] = assay: Antiimplantation activity against Sprague-Dawley albino rat at 10 mg/kg, po administered for 1-5 days measured on day 10 of pregnancy relative to control
Rattus norvegicus [2] = assay: Antiimplantation activity against Sprague-Dawley albino rat at 1 mg/kg, po administered for 1-5 days measured on day 10 of pregnancy relative to control
Rattus norvegicus [3] = assay: Antiimplantation activity against Sprague-Dawley albino rat at 5 mg/kg, po administered for 1-5 days measured on day 10 of pregnancy relative to control
Rattus norvegicus [4] = assay: Antiimplantation activity against Sprague-Dawley albino rat at 2.5 mg/kg, po administered for 1-5 days measured on day 10 of pregnancy relative to control
Rattus norvegicus [5] = assay: Antiimplantation activity against Sprague-Dawley albino rat at 1.25 mg/kg, po administered for 1-5 days measured on day 10 of pregnancy relative to control
Rattus norvegicus [6] = assay: Antiimplantation activity against Sprague-Dawley albino rat at 2 mg/kg, po administered for 1-5 days measured on day 10 of pregnancy relative to control
Rattus norvegicus [7] = assay: Antiimplantation activity against Sprague-Dawley albino rat at 1.5 mg/kg, po administered for 1-5 days measured on day 10 of pregnancy relative to control

SMILES | Activity (Rattus norvegicus [1]) | Activity (Rattus norvegicus [2]) | Activity (Rattus norvegicus [3]) | Activity (Rattus norvegicus [4]) | Activity (Rattus norvegicus [5]) | Activity (Rattus norvegicus [6]) | Activity (Rattus norvegicus [7])
C=CCC1(O)C[C@]2(C)[C@@H](OC(C)=O)CC[C@H]2C2=C1c1ccc(OC)cc1CC2 (stereo partly specified) | 100% | – | – | – | – | – | –
CCC1(O)C[C@]2(C)[C@@H](O)CC[C@H]2C2=C1c1ccc(OC)cc1CC2 (stereo partly specified) | 100% | 50% | 100% | 100% | 100% | – | –
COc1ccc2c(c1)CCC1=C2C(C)(O)C[C@]2(C)[C@@H](O)CC[C@@H]12 (stereo partly specified) | 100% | – | 100% | – | – | 100% | –
COc1ccc2c(c1)CCC1=C2C(=O)C[C@]2(C)[C@@H](O)CC[C@@H]12 | 100% | – | 100% | – | – | inactive | –
C=CCC1(O)C[C@]2(C)[C@@H](O)CC[C@H]2C2=C1c1ccc(OC)cc1CC2 (stereo partly specified) | 100% | 60% | 100% | – | – | 100% | 60%
C=CCC1=C[C@]2(C)[C@@H](O)CC[C@H]2C2=C1c1ccc(OC)cc1CC2 | 100% | – | – | – | – | – | –
COc1ccc2c(c1)OC(C)(C)C(c1ccccc1)C2c1ccc(OCCN2CCCC2)cc1 (stereo unspecified) [ORMELOXIFENE] | 100% | 100% | – | – | – | – | –
COc1ccc2c(c1)CCC1=C2C(O)(Cc2ccccc2)C[C@]2(C)[C@@H](O)CC[C@@H]12 (stereo partly specified) | 100% | – | – | – | – | – | –
